The values below come from patent US10639305B2, “Liquid preparation comprising pimobendan” (Boehringer Ingelheim Vetmedica GmbH, priority 2006, dated 2020).

Data set [1] is described as follows: Saturated solubility of pimobendan at 10 to 40% (w/v) HPβCD at pH 3, 5 and 7. It is filed as physicochemical. As to conditions: HPβCD 10 to 40% (w/v), pH 3, 5, 7, 25° C. Here is the method: Kleptose® HP (Roquette, France) was used as HPβCD of pharmaceutical grade. […] The solutions were buffered with a sodium phosphate solution. The sample solutions were prepared using the following method: • a) Approximately 3 ml of the solution under test was placed in a 7 ml glass vial with a magnetic stirring bar. • b) The pH was adjusted with hydrochloric acid • c) An excess of pimobendan was added.

Another data set is described as follows: physchem. It is filed as physicochemical. Here is the method: Saturated solubility of pimobendan was investigated at 20 to 25% (w/v) of HPβCD in 10 mM phosphate buffer pH 7.0. The study was carried out on three different batches of HPβCD and each solution tested in duplicate (see FIG. 3). The solutions were prepared using the following method: • a) Approximately 3 ml of the solution under test was placed in a 7 ml glass vial with a magnetic stirring bar. • b) An excess of pimobendan was added. The sample was placed in an ultrasonic bath and sonicated for 5 min. to ensure an excess of pimobendan was present and more added if required. • c) The samples were placed in a water bath at 25° C. and stirred for at least 16 hours. • d) The samples were filtered using 0.2 μm PVDF syringe filter. • e) The samples were assayed by HPLC.
An isotonic solution was required for the formulation. […] Sodium chloride was added to increase the osmolality to 303 mOsm/Kg. Saturated solubility of pimobendan 0.75 mg/ml at 24% (w/v) HPβCD were investigated and results were compared with those formulations that were not supplemented with sodium chloride.

The conditions of data set [2]: cited from earlier work.

Values after ≈ are worked out from the molar mass of the structure shown.

Turning to `COc1ccc(-c2nc3ccc(C4=NNC(=O)CC4C)cc3[nH]2)cc1` (stereo not shown) [pimobendan, 4,5-dihydro-6-[2-(4-methoxyphenyl)-1H-benzimidazol-5-yl]-5-methyl-3(2H)-pyridazinone], in data set [1], the “solubility at a certain HPβCD concentration, compared between pH values” is given as “lower at pH 7 than at pH 3, but higher than at pH 5”. In the data set “physchem” (25 °C, pH 7, aqueous with cosolvent or surfactant or cyclodextrin, thermodynamic from solid, saturated solubility (amount of soluble pimobendan)), this compound came in with a solubility of roughly 1230 µg/mL (≈ 3.68 mM). In the data set “physchem” (pH 7), the “saturated solubility (amount of soluble pimobendan)” value was “about 0.71 mg/ml”. Besides, the “solubility at pH 7” value in data set [2] was “about 0.1 mg per 100 ml”.
